Experimental data published in patent US8927549B2, “Adamantyl benzamide derivatives” (High Point Pharmaceuticals, LLC, priority 2008, dated 2015).

The compounds below were run against T1, 11β-HSD (Homo sapiens, UniProt P28845) (assay: in vitro 11β-HSD Assay (human microsomes, CISBIO Cortisol kit)). Conditions: 160 nM cortisone, 200 μM NADPH, 2 h at 37° C.
T1 construct: from tissue
Format: biochemical
Protocol: Protocol for in vitro 11β-HSD Assay
CISBIO Cortisol kit #62CO2PEB
Assay Buffer: (water based) used for Enzyme, Compounds and Microsomes: 20 mM Tris, 5 mM EDTA, and pH 6.0.
Enzyme Buffer: 333 μM NADPH (FAC 200 μM) and 266 nM Cortisone (FAC 160 nM).
1) Test compounds (10 mM stock in 100% DMSO) were diluted in Assay Buffer (see below) with 1% DMSO FAC and placed into the 96-well plate. Test compounds were typically tested over 10 concentrations (30 μM-0.3 nM).
2) 30 μL Enzyme Buffer, 10 μL Test Compound, 10 μL human microsomes were added to the test compounds and mixed gently by tapping the plate.
3) The plates were incubated for 2 h at 37° C.
4) 25 μL anti Cortisol-K and 25 μL Cortisol d2 were added to the plate and mixed gently by tapping the plate.
5) The plates were incubated at room temperature for 2 h.
6) The plates were read on an Envision model 2120 Perkin-Elmer using emission filters #205 and #217.

T1 sequence (P28845 whole entry): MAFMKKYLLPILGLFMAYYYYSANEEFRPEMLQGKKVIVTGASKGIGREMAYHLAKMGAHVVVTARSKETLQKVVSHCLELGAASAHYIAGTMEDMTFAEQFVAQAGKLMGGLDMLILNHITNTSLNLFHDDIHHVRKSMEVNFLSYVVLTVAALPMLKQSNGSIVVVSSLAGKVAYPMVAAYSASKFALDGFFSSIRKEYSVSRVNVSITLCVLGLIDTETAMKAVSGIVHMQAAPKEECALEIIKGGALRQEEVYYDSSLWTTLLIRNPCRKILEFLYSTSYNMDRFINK

| SMILES | EC50 [nM] |
| --- | --- |
| O=C(NC1C2CC3CC1CC(O)(C3)C2)c1cccc(Oc2ccc(Cl)cn2)c1 (stereo not drawn) [Example 1, 3-(5-Chloro-pyridin-2-yloxy)-N-[(E)-5-hydroxy-adamantan-2-yl]-benzamide] | < 200 |
| O=C(NC1C2CC3CC1CC(O)(C3)C2)c1cccc(Oc2ccc(C(F)(F)F)cn2)c1 (stereo not drawn) [Example 2, N-[(E)-5-Hydroxy-adamantan-2-yl]-3-(5-trifluoromethyl-pyridin-2-yloxy)-benzamide] | < 200 |
| O=C(NC1C2CC3CC1CC(O)(C3)C2)c1cccc(Sc2ccc(Cl)cn2)c1 (stereo not drawn) [Example 3, 3-(5-Chloro-pyridin-2-ylsulfanyl)-N-[(E)-5-hydroxy-adamantan-2-yl]-benzamide] | < 200 |
| O=C(NC1C2CC3CC1CC(O)(C3)C2)c1cccc([S+]([O-])c2ccc(Cl)cn2)c1 (stereo not drawn) [Example 4, 3-(5-Chloro-pyridine-2-sulfinyl)-N-[(E)-5-hydroxy-adamantan-2-yl]-benzamide] | < 500 |
| O=C(NC1C2CC3CC1CC(O)(C3)C2)c1cccc(S(=O)(=O)c2ccc(Cl)cn2)c1 (stereo not drawn) [Example 5, 3-(5-Chloro-pyridine-2-sulfonyl)-N-[(E)-5-hydroxy-adamantan-2-yl]-benzamide] | < 3000 |
| O=C(NC1C2CC3CC1CC(O)(C3)C2)c1cccc(Oc2ccc(Cl)nn2)c1 (stereo not drawn) [Example 6, 3-(6-Chloro-pyridazin-3-yloxy)-N-[(E)-5-hydroxy-adamantan-2-yl]-benzamide] | < 200 |

The next lines start with the values.

| EC50 [nM] | SMILES |
| --- | --- |
| < 200 | O=C(NC1C2CC3CC1CC(O)(C3)C2)c1cccc(Oc2ncc(Cl)cc2Cl)c1 (stereo not drawn) [Example 7, 3-(3,5-Dichloro-pyridin-2-yloxy)-N-[(E)-5-hydroxy-adamantan-2-yl]-benzamide] |
| < 200 | O=C(NC1C2CC3CC1CC(O)(C3)C2)c1cccc(Nc2ccc(Cl)cn2)c1 (stereo not drawn) [Example 8, 3-(5-Chloro-pyridin-2-ylamino)-N-[(E)-5-hydroxy-adamantan-2-yl]-benzamide] |
| < 500 | Cc1cc(C)nc(Nc2cccc(C(=O)NC3C4CC5CC3CC(O)(C5)C4)c2)n1 (stereo not drawn) [Example 9, 3-(4,6-Dimethyl-pyrimidin-2-ylamino)-N-[(E)-5-hydroxy-adamantan-2-yl]-benzamide] |
